Drawing on the NIST ThermoML archive (doi:10.1021/je300826t), this text covers refractive index and mass density for 6 compounds.

± gives the expanded uncertainty stated by the source.

Series [1] is described as follows: refractive index (Na D-line) (dimensionless). The conditions noted are these: 298.15 K; 101.33 kPa; Liquid; Standard Abbe refractometry.
The conditions of series [2]: 298.15 K; 101.33 kPa; Liquid; Vibrating tube method.

Usually refractive index stands for the speed of light in vacuum divided by its phase velocity in the sample. The mass density is mass per unit of volume. Regarding `CCc1ccccc1` [ethylbenzene], the refractive index in series [1] stood at 1.49304 ± 0.00068. The mass density in series [2] is on record as 862.51 ± 0.11 kg/m3.

As to `C1CCCCCCC1` [cyclooctane], in series [1], the refractive index was found to be 1.45598 ± 0.0007. Besides, the mass density in series [2] is 831.47 ± 0.24 kg/m3.

Take `CC1CCCCC1` [methylcyclohexane]: the refractive index in series [1] was 1.42062 ± 0.0007. Moreover, the mass density in series [2] was determined as 765.02 ± 0.24 kg/m3.

As to `c1ccccc1` [benzene], in series [1], the refractive index is reported as 1.49774 ± 0.00068. Further, the mass density in series [2] was determined as 873.57 ± 0.11 kg/m3.

With `C1CCCCC1` [cyclohexane], the refractive index in series [1] came out at 1.4236 ± 0.00068. Besides, the mass density in series [2] came out at 773.8 ± 0.13 kg/m3.

As for `CCCCn1cc[n+](C)c1.COS(=O)(=O)[O-]` [1-butyl-3-methylimidazolium methyl sulfate], the refractive index in series [1] is listed as 1.47792 ± 0.0007. The mass density in series [2] is recorded as 1212.59 ± 0.41 kg/m3.
